Experimental data as given in patent US11840686B2, “Modulation of prekallikrein (PKK) expression” (Ionis Pharmaceuticals, Inc., priority 2013, dated 2023).
Strand notation (5' to 3'): a small letter for the sugar, then the base; units joined by * are phosphorothioate-linked, units joined directly phosphodiester-linked; [ ] holds rarer units or linkages, { } end groups; capitals alone tell only the bases. e = 2'-O-(2-methoxyethyl) (MOE); [5mC] = 5-methylcytosine; d = 2'-deoxy (DNA)

Tested on: human PKK mRNA
Test: Antisense inhibition of human PKK mRNA in HepaRG cells, 5,000 nM (Example 2)
Assay type: cell-based
Outline: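 Percent inhibition of PKK mRNA is relative to untreated control, with qRT-PCR (probe set RTS3454) values adjusted to total RNA by RIBOGREEN. Oligonucleotides, fully phosphorothioate 2′-MOE gapmers, were delivered at 5,000 nM by electroporation into 20,000 HepaRG cells/well for about 24 h.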

[1] = HepaRG cells, 5,000 nM antisense oligonucleotide, 5-10-5 gapmers, Table 17
[2] = Table 8, HepaRG cells, electroporation with 5,000 nM antisense oligonucleotide, approx. 24 hours, PKK mRNA by RT-PCR (RTS3454), relative to untreated control cells
[3] = HepaRG cells, electroporation, 5,000 nM antisense oligonucleotide, approx. 24 hours, primer probe set RTS3454, relative to untreated control cells, Table 11
[4] = human PKK mRNA, HepaRG cells, 5,000 nM antisense oligonucleotide, Table 18
[5] = human PKK mRNA in HepaRG cells, 5-10-5 gapmers, Table 14
[6] = human PKK mRNA, HepaRG cells, 5-10-5 motif oligonucleotides targeting SEQ ID NO: 1 and 10
[7] = Table 9 experiment, HepaRG cells, 20,000 cells per well, electroporation with 5,000 nM antisense oligonucleotide, approx. 24 hours, PKK mRNA by RT-PCR (RTS3454), relative to untreated control cells
[8] = Table 10 experiment, HepaRG cells, 20,000 cells per well, electroporation with 5,000 nM antisense oligonucleotide, approx. 24 hours, PKK mRNA by RT-PCR (RTS3454), relative to untreated control cells
[9] = Table 13, human PKK mRNA in HepaRG cells, 5-10-5 gapmers
[10] = HepaRG cells, 5,000 nM antisense oligonucleotide, 5-10-5 gapmers, Table 16
[11] = HepaRG cells, electroporation, 5,000 nM antisense oligonucleotide, approx. 24 hours, primer probe set RTS3454, relative to untreated control cells, Table 12

## 547392 (eA*eA*eG*eG*e[5mC]*dT*dA*dT*dA*dT*d[5mC]*d[5mC]*dA*dG*dA*eT*eA*eT*eG*eG; antisense) [compound 547392]
Table 7, HepaRG cells, electroporation with 5,000 nM antisense oligonucleotide, approx. 24 hours, PKK mRNA by RT-PCR (RTS3454), relative to untreated control cells
  % inhibition: 81%

## 547778 (antisense eT*e[5mC]*eA*e[5mC]*e[5mC]*dT*dG*dT*dG*dA*dG*dT*dA*dA*d[5mC]*e[5mC]*eA*eA*eT*eA) [compound 547778]
[1]
  % inhibition: 53%

## 546297 (antisense eT*eA*eT*eA*eG*dA*dT*dG*d[5mC]*dG*d[5mC]*d[5mC]*dA*dA*dA*e[5mC]*eA*eT*e[5mC]*e[5mC]) [compound 546297]
[2]
  % inhibition: 82%

## 546391 (eG*e[5mC]*eA*eT*eT*dG*dT*d[5mC]*dA*dG*d[5mC]*d[5mC]*d[5mC]*d[5mC]*dT*eG*eG*eT*eT*eA; antisense) [compound 546391]
[3]
  % inhibition: 54%

## 548776 (antisense e[5mC]*e[5mC]*eT*eA*dT*dA*dA*d[5mC]*dT*dA*dT*dA*dA*e[5mC]*eA*eA*eT) [compound 548776]
[4]
  % inhibition: 0%

## 547055 (eG*e[5mC]*eT*e[5mC]*e[5mC]*dT*dG*dG*d[5mC]*dA*dG*d[5mC]*dA*dA*dT*eG*eA*e[5mC]*e[5mC]*e[5mC]; antisense) [compound 547055]
[1]
  % inhibition: 70%

## 546883 (e[5mC]*eT*eA*eG*eT*dT*dT*d[5mC]*d[5mC]*dT*dA*dT*dA*dA*d[5mC]*eA*eG*eT*eA*eT; antisense) [compound 546883]
[5]
  % inhibition: 19%

## 546363 (antisense e[5mC]*eT*eT*e[5mC]*eT*d[5mC]*dA*dT*dG*d[5mC]*dT*dG*dG*dT*dG*eA*e[5mC]*eT*eG*e[5mC]) [compound 546363]
[3]
  % inhibition: 81%

## 547634 (antisense eA*eT*e[5mC]*eA*e[5mC]*dT*dG*dT*dA*d[5mC]*dT*dA*dG*dT*dT*eT*eT*e[5mC]*eT*eA) [compound 547634]
[6]
  % inhibition: 72%

## 546300 (antisense eT*eA*eA*eT*eG*dT*d[5mC]*dT*dG*dA*d[5mC]*dA*dG*dA*dT*eT*eT*eA*eA*eA) [compound 546300]
[2]
  % inhibition: 58%

## 547465 (antisense eA*eA*eA*eT*eT*dG*dT*dG*d[5mC]*dT*dT*dG*dT*dG*dT*e[5mC]*eA*e[5mC]*e[5mC]*eT) [compound 547465]
[7]
  % inhibition: 88%
[8]
  % inhibition: 85%

## 546799 (eA*eT*eG*eA*eA*dG*dG*dG*d[5mC]*dG*dA*dG*dG*d[5mC]*dG*e[5mC]*eA*eG*eT*eG; antisense) [compound 546799]
[9]
  % inhibition: 5%

## 546747 (e[5mC]*eT*e[5mC]*e[5mC]*e[5mC]*dA*d[5mC]*dT*dG*dA*d[5mC]*dT*dG*dA*d[5mC]*eT*eA*e[5mC]*eT*e[5mC]; antisense) [compound 546747]
[9]
  % inhibition: 64%

## 546367 (antisense eA*eA*eA*eA*eA*dT*dT*dG*d[5mC]*d[5mC]*dT*dA*dG*dA*d[5mC]*eT*e[5mC]*eT*eG*eG) [compound 546367]
[3]
  % inhibition: 61%

## 547701 (antisense e[5mC]*eA*eT*e[5mC]*eA*d[5mC]*dT*dG*dT*dA*d[5mC]*d[5mC]*dT*dA*dT*eA*eA*e[5mC]*eT*eA) [compound 547701]
[10]
  % inhibition: 49%

## 547532 (antisense e[5mC]*eT*eG*e[5mC]*e[5mC]*dA*dA*d[5mC]*dA*dG*dT*dT*dT*d[5mC]*dA*eA*e[5mC]*eT*eT*eT) [compound 547532]
[11]
  % inhibition: 65%

## 547709 (antisense eA*eG*e[5mC]*e[5mC]*e[5mC]*dA*dA*dT*dG*dT*d[5mC]*d[5mC]*dT*dA*dA*e[5mC]*e[5mC]*eT*eG*eT) [compound 547709]
[10]
  % inhibition: 76%

## 546277 (eT*eG*eT*eG*eT*d[5mC]*d[5mC]*d[5mC]*dA*dT*dA*d[5mC]*dG*d[5mC]*dA*eA*eT*e[5mC]*e[5mC]*eT; antisense) [compound 546277]
[2]
  % inhibition: 90%

## 548774 (antisense e[5mC]*e[5mC]*eT*eA*dT*dA*dA*d[5mC]*dT*dA*dT*dA*dA*e[5mC]*eA*eG*eT) [compound 548774]
[4]
  % inhibition: 0%

## 546871 (eA*e[5mC]*eT*eG*eT*dA*d[5mC]*d[5mC]*dT*dA*dT*dA*dA*d[5mC]*dT*e[5mC]*eT*eA*eA*e[5mC]; antisense) [compound 546871]
[5]
  % inhibition: 73%

## 547597 (antisense e[5mC]*eA*eA*eT*eA*dT*d[5mC]*dA*d[5mC]*dT*dG*dT*d[5mC]*d[5mC]*dT*eA*eT*eA*eT*e[5mC]) [compound 547597]
[5]
  % inhibition: 29%

## 546308 (antisense eA*e[5mC]*eT*eT*eT*dA*dT*dA*dG*dT*dT*dT*dT*dG*dG*eT*eG*eA*eA*eT) [compound 546308]
[7]
  % inhibition: 57%
[8]
  % inhibition: 43%

## 547648 (e[5mC]*e[5mC]*eT*eA*eT*dA*dA*d[5mC]*dA*dG*dT*dA*dT*d[5mC]*dA*e[5mC]*eT*eG*eT*eA; antisense) [compound 547648]
[6]
  % inhibition: 83%

## 546395 (eT*eT*e[5mC]*eA*e[5mC]*dA*dA*d[5mC]*dA*d[5mC]*dA*d[5mC]*dA*dG*dT*e[5mC]*eA*eT*eG*eG; antisense) [compound 546395]
[11]
  % inhibition: 72%

## 547741 (eT*eA*eG*eG*eT*dG*dG*dT*dG*dG*dG*dA*dT*dT*dG*eG*eT*eG*eG*eT; antisense) [compound 547741]
[1]
  % inhibition: 47%

## 546705 (e[5mC]*e[5mC]*e[5mC]*e[5mC]*eT*dG*dT*dA*dG*dT*dT*dG*dG*d[5mC]*dT*eG*eT*eG*eG*eT; antisense) [compound 546705]
[11]
  % inhibition: 66%

## 547569 (eA*e[5mC]*eT*eA*e[5mC]*d[5mC]*dA*dT*dT*dT*dG*dG*dG*dT*dT*eG*eG*eT*eA*eG; antisense) [compound 547569]
[9]
  % inhibition: 9%

## 547644 (eT*eA*eT*e[5mC]*eA*d[5mC]*dT*dG*dT*d[5mC]*d[5mC]*dT*dA*dT*dA*eA*e[5mC]*eT*eA*eT; antisense) [compound 547644]
[6]
  % inhibition: 51%

## 548746 (antisense eT*eA*eT*e[5mC]*dA*d[5mC]*dT*dG*dT*dA*d[5mC]*dT*dA*eG*eT*eT*eT) [compound 548746]
[4]
  % inhibition: 40%

## 547685 (antisense eA*eT*eA*eA*e[5mC]*dT*dA*dT*dA*dT*d[5mC]*dA*d[5mC]*dT*dG*eT*e[5mC]*e[5mC]*eT*eA) [compound 547685]
[10]
  % inhibition: 35%

## 547582 (eT*eA*eT*eA*eT*d[5mC]*dA*d[5mC]*dT*dG*dT*d[5mC]*d[5mC]*dT*dA*eT*eA*eA*e[5mC]*eT; antisense) [compound 547582]
[9]
  % inhibition: 22%

## 547589 (eT*eA*eA*e[5mC]*eT*dA*dT*dA*dA*d[5mC]*dA*dG*dT*dA*dT*e[5mC]*eA*e[5mC]*eT*eG; antisense) [compound 547589]
[5]
  % inhibition: 36%

## 546322 (antisense e[5mC]*eT*eT*eG*eT*dG*dT*d[5mC]*dA*d[5mC]*d[5mC]*dT*dT*dT*dG*eG*eA*eA*eG*eG) [compound 546322]
[7]
  % inhibition: 74%
[8]
  % inhibition: 68%

## 548706 (DNA e[5mC]*eT*eA*dG*dT*dT*dT*d[5mC]*d[5mC]*dT*dA*dT*dA*eA*e[5mC]*eT; antisense) [compound 548706]
HepaRG cells, 5,000 nM antisense oligonucleotide, human PKK mRNA, Table 18
  % inhibition: 0%

## 547309 (antisense e[5mC]*eT*eT*eT*e[5mC]*dA*dA*dG*dA*dA*dG*d[5mC]*dA*dA*d[5mC]*e[5mC]*eA*eA*eA*e[5mC]) [compound 547309]
HepaRG cells, electroporation with 5,000 nM antisense oligonucleotide, approximately 24 hours, PKK mRNA by RT-PCR (RTS3454), relative to untreated control cells, Table 5 experiment
  % inhibition: 71%

## 547705 (antisense eG*e[5mC]*eA*e[5mC]*e[5mC]*d[5mC]*dA*dA*dT*dA*d[5mC]*dA*dG*dG*dG*e[5mC]*e[5mC]*eA*eG*eG) [compound 547705]
[10]
  % inhibition: 69%
